Experimental data as given in patent US9005649B2, “Methods for making controlled delivery devices having zero order kinetics” (Board of Regents, the University of Texas System, priority 2009, dated 2015).

How the values were obtained:
[1] = intravenous, AIDS patients with CMV retinitis; cited from earlier work
[2] = Release of crystal violet from impermeable polyimide tube delivery devices into phosphate buffered saline (USP Disintegration Apparatus, UV-Vis); assay type: physicochemical; details: for linearity of release: 28 days; for total duration of release, percentage release extrapolated to 100%: PBS pH 7.37, 37° C., 28 days data
Protocol: Lengths of polyimide tubes were provided having a length of 20 mm and a diameter of 125 microns. At the centre of each tube, a passageway with a diameter of 30 microns was made using standard chemical procedures.
Seven (7) tubes having the optimal passageways were selected and loaded with a concentrated solution of crystal violet in ethanol by capillary method. The tubes were then allowed to stand for 24 hours at room temperature to evaporate alcohol from the tubes, such that the tube is tightly packed with a solid crystal violet composition.
After taking an initial weight measurement, an average amount of 126 micrograms of crystal violet was estimated inside the tubes. The ends of the tubes were sealed with a bioglue and dried.
Single passageway tubes made according to Example I were placed in microvials containing 0.26 ml of phosphate buffered saline (0.01 M phosphate, pH 7.37). The vials were placed in a USP Disintegration Apparatus having dip rate of 30-32 dips per minute. The apparatus was connected to a waterbath maintained at 37° C. for the entire duration of study. The buffer was changed every 48 hours, sampled, and analyzed for the amount of crystal violet released using a UV-Vis Spectrophotometer for 28 days.
Several drug delivery devices were constructed in accordance with in Example I except that two passageways were made located equidistant from the tube centre. The optimal seven (7) were selected and loaded with crystal violet in accordance with Example I.
Several drug delivery devices were constructed in accordance with Example I except that three passageways were made located equidistant from each end of the tube. The optimal seven (7) were selected and loaded with crystal violet in accordance with Example I.
Seven (7) lengths of polyimide tubes were provided having a length of 20 mm and a diameter of 125 microns. The tubes were then loaded with a concentrated solution of crystal violet in ethanol by capillary method. The tubes were then allowed to stand for 24 hours at room temperature to evaporate alcohol from the tubes, such that the tube is tightly packed with a solid crystal violet composition. One end of the tube was sealed with a bioglue while the other end was left open.
A drug delivery device made in accordance with Example VIII was subjected to release studies as described in Example II. […] The percentage release when extrapolated to 100% corresponds to the total duration of release of approximately 2 years.

[3] = Release of crystal violet from single outlet port devices of 200, 400 and 600 microns inside diameter (incubator, UV-Vis); assay type: physicochemical; details: one outlet port devices, 200, 400, 600 microns inside diameter, 3.0 ml PBS pH 7.37, 37° C., 7 days
Protocol: Drug delivery devices were made having one outlet port and one sealed end. […] Three different variation of devices were prepared with different inside diameters, as in 200, 400, and 600 microns. Four devices of each type were subjected to release studies as described in Example I. Single passageway tubes were placed in micro vials containing 3.0 ml of phosphate buffered saline (0.01 M phosphate, pH 7.37). The vials were placed in an incubator maintained at 37° C. for the entire duration of study. The buffer was changed every 24 hours, sampled, and analyzed for the amount of crystal violet released using a UV-Vis Spectrophotometer for seven (7) days.

[4] = Release of crystal violet from impermeable polyimide tube delivery devices into phosphate buffered saline (USP Disintegration Apparatus, UV-Vis); assay type: physicochemical; details: single outlet port device
[5] = continuous release for seven days, glaucoma; cited from earlier work

Nc1nc(O)c2ncn(COC(CO)CO)c2n1 [Ganciclovir]
patients experiencing bone marrow toxicity resulting in neutropenia (neutrophil count <1000) [1]: 30-50%

CN(C)c1ccc(C(=C2C=CC(=[N+](C)C)C=C2)c2ccc(N(C)C)cc2)cc1 [crystal violet]
amount released relative to single passageway device ([2]; double passageway device): two-fold
linearity of release ([2]; double passageway device): significant linear agent release
total duration of release, percentage release extrapolated to 100% ([2]; double passageway device): approximately 22 years
total duration of release, percentage release extrapolated to 100% ([2]; single passageway device (30 micron passageway, 20 mm x 125 micron tube)): approximately 43 years
linearity of release ([2]; single passageway device): significant linearity of release
amount released relative to single passageway device ([2]; triple passageway device): three-fold
linearity of release ([2]; triple passageway device): significant linear agent release
total duration of release, percentage release extrapolated to 100% ([2]; triple passageway device): approximately 15 years
linearity of release [3]: significant linearity of release
linearity of release ([4]; 5 days): significant linearity of release
total duration of release, percentage release extrapolated to 100% ([4]; no surface passageways, one open end, 5 days data): approximately 2 years

CC[C@@H]1C(=O)OC[C@@H]1Cc1cncn1C [pilocarpine]
release rate from ocular insert [5]: 20 to 40 µg/h
